Measurements: patent US20230130766A1 (SALK INSTITUTE FOR BIOLOGICAL STUDIES, priority 2020, published 2023)

molecular target: T1, ULK1 (Homo sapiens, UniProt O75385); test: ULK1 inhibition assay; type: biochemical; details: * = tested as a mixture of regioisomers
T1 sequence (O75385 1-1050): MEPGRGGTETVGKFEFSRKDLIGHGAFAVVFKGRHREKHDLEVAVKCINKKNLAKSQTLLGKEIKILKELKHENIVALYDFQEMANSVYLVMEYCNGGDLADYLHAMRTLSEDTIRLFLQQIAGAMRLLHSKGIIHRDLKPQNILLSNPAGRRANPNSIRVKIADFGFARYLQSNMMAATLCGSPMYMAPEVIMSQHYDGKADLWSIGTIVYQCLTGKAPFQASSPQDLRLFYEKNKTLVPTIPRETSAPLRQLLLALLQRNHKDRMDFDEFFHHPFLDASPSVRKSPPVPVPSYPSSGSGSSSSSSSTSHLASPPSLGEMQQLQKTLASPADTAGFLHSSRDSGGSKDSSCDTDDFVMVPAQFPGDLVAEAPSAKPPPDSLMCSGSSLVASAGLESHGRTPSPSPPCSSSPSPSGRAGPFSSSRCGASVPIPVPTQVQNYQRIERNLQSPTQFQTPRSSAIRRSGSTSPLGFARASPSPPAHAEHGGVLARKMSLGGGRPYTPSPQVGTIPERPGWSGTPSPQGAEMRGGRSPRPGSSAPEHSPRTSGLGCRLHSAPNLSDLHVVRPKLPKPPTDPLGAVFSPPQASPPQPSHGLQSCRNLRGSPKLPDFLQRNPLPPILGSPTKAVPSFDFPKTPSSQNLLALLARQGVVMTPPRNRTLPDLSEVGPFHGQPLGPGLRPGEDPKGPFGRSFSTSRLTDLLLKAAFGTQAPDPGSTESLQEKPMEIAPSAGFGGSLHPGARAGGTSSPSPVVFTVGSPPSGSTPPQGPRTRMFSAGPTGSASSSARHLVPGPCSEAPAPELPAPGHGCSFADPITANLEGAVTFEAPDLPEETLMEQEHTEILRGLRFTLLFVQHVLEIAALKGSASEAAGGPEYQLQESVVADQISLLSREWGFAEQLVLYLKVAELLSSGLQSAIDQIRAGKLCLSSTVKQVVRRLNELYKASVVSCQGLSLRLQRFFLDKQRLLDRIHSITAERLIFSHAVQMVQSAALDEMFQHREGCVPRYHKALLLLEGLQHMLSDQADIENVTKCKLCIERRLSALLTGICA

IC50	Structure (SMILES)
< 0.2 µM	CNC(=O)c1ccccc1Nc1nc(Nc2ccc3c(c2)OCO3)ncc1Cl [Compound 49]
> 2 µM	COc1ccc(C)c(Nc2ncc(C(F)(F)F)c(NCc3cccc(S(C)(=O)=O)c3)n2)c1 [Compound 50]
< 0.2 µM	CNC(=O)c1ccccc1Nc1nc(Nc2ccc3c(c2)OCCO3)ncc1Cl [Compound 51]
> 2 µM	COc1cc(N2CCOCC2)ccc1Nc1ncc(C(F)(F)F)c(NCc2cccc(S(C)(=O)=O)c2)n1 [Compound 52]
> 2 µM	CNC(=O)c1ccccc1Nc1nc(Nc2ccccc2C)ncc1Cl [Compound 53]
> 2 µM	COc1ccc(C)c(Nc2ncc(Cl)c(Nc3cccc(CC#N)c3)n2)c1 [Compound 54]
> 2 µM	COc1ccc(C)c(Nc2ncc(Cl)c(Nc3nccc(C)n3)n2)c1 [Compound 55]
> 2 µM	CS(=O)(=O)c1cccc(CNc2nc(Nc3ccc4c(c3)CCC(=O)N4)ncc2F)c1 [Compound 56]
< 0.2 µM	CNC(=O)c1ccccc1Nc1nc(Nc2cc3c(cc2C)OCO3)ncc1Cl [Compound 57]
> 2 µM	O=C1CCc2cc(Nc3ncc(C(F)(F)F)c(Nc4nccs4)n3)ccc2N1 [Compound 58]
< 0.2 µM	CNC(=O)c1ccccc1Nc1ccnc(Nc2cc(OC)c(OC)c(OC)c2)n1 [Compound 60]
< 0.2 µM	N#CCc1cccc(Nc2nc(Nc3ccc4c(c3)CCC(=O)N4)ncc2C(F)(F)F)c1 [Compound 61]
< 0.2 µM	O=C1CCc2cc(Nc3ncc(C(F)(F)F)c(SCc4ccccc4)n3)ccc2N1 [Compound 62]
> 2 µM	O=C1CCc2cc(Nc3ncc(C(F)(F)F)c(C#Cc4ccccc4)n3)ccc2N1 [Compound 64]
> 2 µM	Cc1cnc(Nc2ccc3c(c2)CCC(=O)N3)nc1NCc1cccc(S(C)(=O)=O)c1 [Compound 67]
< 0.2 µM	O=C1CCc2cc(Nc3ncc(C(F)(F)F)c(/C=C/c4ccccc4)n3)ccc2N1 [Compound 69]
< 0.2 µM	CNC(=O)c1ccccc1Nc1nc(Nc2cc(OC)c(OC)c(OC)c2)ncc1/C=C/c1ccccc1 [Compound 71]
> 2 µM	O=C1CCc2cc(Nc3ncc(C(F)(F)F)c(-c4ccccc4)n3)ccc2N1 [Compound 72]
< 0.2 µM	CNC(=O)c1ccccc1Nc1nc(Nc2cc(OC)c(OC)c(OC)c2)ncc1-c1ccccc1 [Compound 73]
< 0.2 µM	CNC(=O)c1ccccc1Nc1nc(Nc2ccc3c(c2)CCC(=O)N3)ncc1C(F)(F)F [Compound 76]
< 0.2 µM	COc1cc(N2CCOCC2)ccc1Nc1ncc(Br)c(Nc2ccccc2S(=O)(=O)N(C)C)n1 [Compound 80]

IC50	Structure (SMILES)
< 0.2 µM	O=C1CCc2cc(Nc3ncc(C(F)(F)F)c(OCc4ccccc4)n3)ccc2N1 [Compound 81]
< 0.2 µM	COc1c(C)cnc(CNc2nc(Nc3ccc4c(c3)CCC(=O)N4)ncc2C(F)(F)F)c1C [Compound 82]
< 0.2 µM	Cc1cccc(Oc2nc(Nc3ccc4c(c3)CCC(=O)N4)ncc2C(F)(F)F)c1C [Compound 83]
< 0.2 µM	CNC(=O)c1ccccc1Nc1nc(Nc2ccc3c(c2)CCC(=O)N3)ncc1-c1ccccc1 [Compound 89]
< 0.2 µM	CNC(=O)c1ccccc1Nc1nc(Nc2cc(N3CCOCC3)cc(N3CCOCC3)c2)ncc1C(F)(F)F [Compound 90]
< 0.2 µM	CNC(=O)c1ccccc1Oc1nc(Nc2cc(OC)c(OC)c(OC)c2)ncc1C(F)(F)F [Compound 92]
> 2 µM	CNC(=O)c1ccccc1Oc1nc(Nc2ccccc2)ncc1C(F)(F)F [Compound 99]
> 2 µM	CNC(=O)c1ccccc1Oc1nc(Nc2cc(Br)ccc2C)ncc1C(F)(F)F [Compound 100]
> 2 µM	CNC(=O)c1ccccc1Oc1nc(Nc2cc(OC)ccc2C)ncc1C(F)(F)F [Compound 101]
> 2 µM	CNC(=O)c1ccccc1Oc1nc(Nc2ccc(C)c(Br)c2)ncc1C(F)(F)F [Compound 102]
> 2 µM	CNC(=O)c1ccccc1Oc1nc(Nc2ccccc2OC)ncc1C(F)(F)F [Compound 103]
> 2 µM	CNC(=O)c1ccccc1Oc1nc(Nc2cc(C)ccc2C)ncc1C(F)(F)F [Compound 104]
> 2 µM	CNC(=O)c1ccccc1Oc1nc(Nc2ccc(OC)cc2)ncc1C(F)(F)F [Compound 105a]
> 2 µM	COc1ccc(Nc2ncc(C(F)(F)F)c(O)n2)cc1 [Compound 105b]
> 2 µM	CNC(=O)c1ccccc1Oc1nc(Nc2ccc(C)cc2Cl)ncc1C(F)(F)F [Compound 107]
> 2 µM	CNC(=O)c1ccccc1Oc1nc(Nc2ccc(Cl)c(Cl)c2)ncc1C(F)(F)F [Compound 108a]
> 2 µM	Oc1nc(Nc2ccc(Cl)c(Cl)c2)ncc1C(F)(F)F [Compound 108b]
> 2 µM	CNC(=O)c1ccccc1Oc1nc(Nc2cc(OC)ccc2OC)ncc1C(F)(F)F [Compound 109a]
> 2 µM	COc1ccc(OC)c(Nc2ncc(C(F)(F)F)c(O)n2)c1 [Compound 109b]
> 2 µM	CNC(=O)c1ccccc1Oc1nc(Nc2ccccc2)ncc1Br [Compound 111]
> 2 µM	CNC(=O)c1ccccc1Oc1nc(Nc2cc(Br)ccc2C)ncc1Br [Compound 112]

IC50	Structure (SMILES)
> 2 µM	CNC(=O)c1ccccc1Oc1nc(Nc2cccc(F)c2F)ncc1C(F)(F)F [Compound 113]
> 2 µM	Clc1cnc(Nc2ccccc2)nc1Nc1ccccc1 [Compound 114]
> 2 µM	CNC(=O)c1ccccc1Oc1nc(Nc2cccc(OC)c2OC)ncc1C(F)(F)F [Compound 115a]
> 2 µM	COc1cccc(Nc2ncc(C(F)(F)F)c(O)n2)c1OC [Compound 115b]
> 2 µM	CNC(=O)c1ccccc1Oc1nc(Nc2ccccc2SC)ncc1C(F)(F)F [Compound 116a]
> 2 µM	CSc1ccccc1Nc1ncc(C(F)(F)F)c(Nc2ccccc2SC)n1 [Compound 116b]
> 2 µM	CNC(=O)c1ccccc1Sc1nc(Nc2cc(OC)ccc2C)ncc1C(F)(F)F [Compound 117]
< 0.2 µM	O=C1CCc2cc(Nc3ncc(C(F)(F)F)c(Nc4ccccc4N4CCOCC4)n3)ccc2N1 [Compound 118a]
> 2 µM	O=C1CCc2cc(Nc3nc(Nc4ccccc4N4CCOCC4)ncc3C(F)(F)F)ccc2N1 [Compound 118b]
> 2 µM	Oc1ncc(C(F)(F)F)c(Nc2ccccc2N2CCOCC2)n1 [Compound 118c]
< 0.2 µM	COc1cccc(Nc2nc(Nc3ccc4c(c3)CCC(=O)N4)ncc2C(F)(F)F)c1 [Compound 119]
< 0.2 µM	O=C1CCc2cc(Nc3ncc(C(F)(F)F)c(Nc4ccccc4OC(F)F)n3)ccc2N1 [Compound 120a]
< 0.2 µM	O=C1CCc2cc(Nc3ncc(C(F)(F)F)c(Nc4ccc5c(c4)CCC(=O)N5)n3)ccc2N1 [Compound 120c]
< 0.2 µM	COc1cc(N2CCOCC2)ccc1Nc1nc(Nc2ccc3c(c2)CCC(=O)N3)ncc1C(F)(F)F [Compound 123a]
< 0.2 µM	COc1cc(N2CCOCC2)ccc1Nc1ncc(C(F)(F)F)c(Nc2ccc3c(c2)CCC(=O)N3)n1 [Compound 123b]
< 0.2 µM	FC(F)(F)c1cnc(Nc2ccc3c(c2)OCO3)nc1Nc1ccc2c(c1)OCO2 [Compound 124c]
< 0.2 µM	Cc1ccc(Nc2nc(Nc3ccc4c(c3)CCC(=O)N4)ncc2C(F)(F)F)cc1C [Compound 125]
< 0.2 µM	CNC(=O)c1cccc(Nc2nc(Nc3ccc4c(c3)CCC(=O)N4)ncc2C(F)(F)F)c1 [Compound 128]
< 0.2 µM	O=C1CCc2cc(Nc3ncc(C(F)(F)F)c(Nc4ccc5c(c4)CCC5)n3)ccc2N1 [Compound 129]
